Where two headings read alike, the source gives them in different places.
Key:
[1] = target: T1, 14-3-3ζ:BAD-112-136F interactions (Homo sapiens, UniProt P63104); test: BRET sensor screen for disruption of 14-3-3ζ-Rluc8:BAD-112-136F-mCitrine in living NIH-3T3 cells; type: cell-based, murine; set-up: inhibition: dose or concentration left out as unconfirmed; conditions: NIH3T3, 3 h, read-out: BRET reduction on NIH-3T3; for inhibition: NIH-3T3 cells, hits from the primary screen; for inhibition at 20 µM: NIH-3T3 expressing BRET sensor, 3 h
T1 construct: expressed in transfected cells; host or cells: NIH-3T3 fibroblasts, bi-directional pBI-CMV1 plasmid
T1 sequence (P63104 1-245): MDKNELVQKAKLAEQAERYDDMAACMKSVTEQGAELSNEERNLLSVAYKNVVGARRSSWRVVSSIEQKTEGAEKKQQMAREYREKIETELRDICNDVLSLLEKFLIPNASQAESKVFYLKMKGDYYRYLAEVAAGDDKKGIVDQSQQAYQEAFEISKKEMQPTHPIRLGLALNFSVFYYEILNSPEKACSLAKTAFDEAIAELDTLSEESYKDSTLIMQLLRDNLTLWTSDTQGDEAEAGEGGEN
Experimental: The Z’-score, which evaluates the robustness of an HTS assay readout, was calculated according to standard protocols. For the HTS, 384-well plates were coated with 100 μg/mL poly-L-ornithine (Sigma, Missouri, United States; #P3655) overnight at 37 °C, followed by rinsing with sterilized water. NIH-3T3 cells were transfected with the BRET sensor two days prior to experimentation, followed by replating onto the pre-coated 384-well plates at a density of 20,000 cells/well. After 24 h of incubation at 37 °C, growth media was replaced by Krebs buffer (pH 7.4).

[2] = tested on: HT-29 cells; test: Hoechst/propidium iodide cell death assay in HT-29; type: cell-based, human; conditions: for cytotoxicity at 20 µM: Homo sapiens
Source text: (§1) A high-content imaging system (PerkinElmer; Operetta CLS), was used to quantify cell death and apoptosis by calculating the number of propidium iodide-positive cells relative to Hoechst-positive cells, and the number of Annexin V-positive cells relative to Hoechst-positive cells, respectively.

[3] = tested on: NIH-3T3 cells; test: Hoechst/propidium iodide cell death assay in NIH-3T3; type: cell-based; conditions: for cytotoxicity at 20 µM: Mus musculus, NIH3T3, 24 h, 24 h, read-out: Percentage of cell death % 24h NIH3t3
Source text: as §1

[4] = tested on: Caco-2 cells; type: cell-based; conditions: for Percentage of cell death % 24h CACO-2: 20 µM; for Percentage of cell death % 48h, Caco-2: 20 μM
Source text: as §1

[5] = HT-29, 48 h, HT-29, 48h, 20 μM, read-out: Percentage of cell death % 48h, HT-29
[6] = HT-29, 24 h, 20 µM, 24 h, read-out: Percentage of cell death % 24h HT-29

| inhibition [1] | inhibition at 20 µM [1] | Compound | Percentage of cell death % 24h HT-29 ([2]; 20 µM, 24 h) | %Cell death HT-29 ([2]; HT-29, time not given) | cytotoxicity at 20 µM [2, 5] | cytotoxicity at 20 µM [3] | Percentage of cell death % 48h, NIH3T3 [3] | Percentage of cell death % 24h CACO-2 [4] | Percentage of cell death % 48h, Caco-2 ([4]; Caco-2) | %Cell death Caco-2 ([4]; Caco-2, time not given, text says 48 h) | cytotoxicity at 20 µM [2, 6] |
| --- | --- | --- | --- | --- | --- | --- | --- | --- | --- | --- | --- |
| 33.9% | 33.9% | C=C[C@@H]1C[C@]1(NC(=O)[C@@H]1C[C@@H]2CN1C(=O)[C@H](C(C)(C)C)NC(=O)O[C@@H]1C[C@H]1CCCCCc1nc3ccc(OC)cc3nc1O2)C(=O)NS(=O)(=O)C1CC1 [MK-5172] |  |  | 2.55% | 0.421% | 0.3254% | 2.115% | 2.005% |  | 0.694% |
| 36.5% | 36.5% | Cc1cc(Nc2cc(CN3CCOCC3)c3nc(C)c(Cc4ccc(Cl)cc4F)n3n2)n[nH]1 [LY2784544] |  |  | 55.6% | 62.8% | 50.4683% | 12.6848% | 17.5299% |  | 6.62% |
| 25.5% | 25.5% | CCOC(=O)N1CCC(=C2c3ccc(Cl)cc3CCc3cccnc32)CC1 [Loratadine] |  |  | 3.3% | 9.83% | 16.5359% | 3.76% | 3.356% |  | 0.925% |
| 29.5% | 29.5% | CC(C)OC(=O)CCC/C=C\C[C@@H]1[C@@H](CC[C@@H](O)CCc2ccccc2)[C@H](O)C[C@@H]1O [Latanoprost] |  |  | 1.45% | 1.31% | 0.6511% | 2.638% | 2.117% |  | 0.702% |
| 32.5% | 32.5% | CCc1c(Cl)c(O)c(Cl)c(O)c1C(=O)O[C@H]1[C@H](O)[C@H](OC)[C@H](OC/C2=C\C=C\C[C@H](O)/C(C)=C/[C@H](CC)[C@@H](O[C@@H]3OC(C)(C)[C@@H](OC(=O)C(C)C)[C@H](O)[C@@H]3O)/C(C)=C/C(C)=C/C[C@@H]([C@@H](C)O)OC2=O)O[C@@H]1C [Fidaxomicin] |  |  | 52.8% | 1.82% | 1.5823% |  |  |  | 2.31% |

The next lines start with the compound.

| Compound | inhibition [1] | inhibition at 20 µM [1] | Percentage of cell death % 24h HT-29 ([2]; 20 µM, 24 h) | %Cell death HT-29 ([2]; HT-29, time not given) | cytotoxicity at 20 µM [2, 5] | cytotoxicity at 20 µM [3] | Percentage of cell death % 48h, NIH3T3 [3] | Percentage of cell death % 24h CACO-2 [4] | Percentage of cell death % 48h, Caco-2 ([4]; Caco-2) | %Cell death Caco-2 ([4]; Caco-2, time not given, text says 48 h) | cytotoxicity at 20 µM [2, 6] |
| --- | --- | --- | --- | --- | --- | --- | --- | --- | --- | --- | --- |
| CCCCc1oc2ccc(NS(C)(=O)=O)cc2c1C(=O)c1ccc(OCCCN(CCCC)CCCC)cc1 [Dronedarone] | 50.4% | 50.4% | 52.4326% | 79.0% | 79% | 88.3% | 83.8385% | 69.9639% | 86.906% | 86.9% |  |
| C=CCc1ccc(O)c(-c2ccc(O)c(CC=C)c2)c1 [Honokiol] | 34.2% | 34.2% |  |  | 11.1% | 27.4% | 11.7537% | 22.4688% | 15.5538% |  | 8.61% |
| COc1cc(C(=O)O)ccc1NC(=O)[C@@H]1N[C@@H](CC(C)(C)C)[C@](C#N)(c2ccc(Cl)cc2F)[C@H]1c1cccc(Cl)c1F [RG7388] | 41.6% | 41.6% |  |  | 50% | 35.1% | 20.6788% | 4.882% | 4.655% |  | 9.54% |
| Clc1ccc(C(Cn2ccnc2)OCc2ccc(Sc3ccccc3)cc2)c(Cl)c1 (stereo not shown) [Fenticonazole Nitrate] | 31.7% | 31.7% |  |  | 1.58% | 0.773% | 1.538% |  |  |  | 0.786% |
